Experimental data taken from ChEMBL document CHEMBL5260847, “Current scenario of indole derivatives with potential anti-drug-resistant cancer activity” (Eur J Med Chem, 2020).
pIC50: −log10 of the molar value.

Legend:
[1] = tested on: HeLa; assay: Antiproliferative activity against human Hela cells assessed as reduction in cell viability measured after 48 hrs by MTT assay; type: functional, cell-based
[2] = tested on: A549; assay: Cytotoxicity activity against human A549 cells assessed as reduction in cell viability by SRB assay; type: functional, cell-based
[3] = tested on: HT-29; assay: Cytotoxicity activity against human HT-29 cells assessed as reduction in cell viability by SRB assay; type: functional, cell-based
[4] = tested on: PC-3; assay: Cytotoxicity activity against human PC-3 cells assessed as reduction in cell viability by MTT assay; type: functional, cell-based
[5] = tested on: CWR22R; assay: Cytotoxicity activity against human 22Rv1 assessed as reduction in cell viability by MTT assay; type: functional, cell-based
[6] = tested on: A2780; assay: Antiproliferative activity against human A2780 cells assessed as inhibition of cell proliferation measured after 24 hrs by MTT assay; type: functional, cell-based; conditions: A2780, 24 h
[7] = Cytotoxicity activity against human U87MG.deltaEGFR cells assessed as reduction in cell viability incubated for 72 hrs by MTT assay; type: functional, cell-based
[8] = tested on: DLD-1; assay: Cytotoxicity against human DLD-1 cells assessed as reduction in cell viability measured after 48 hrs by SRB assay; type: functional, cell-based; conditions: DLD-1, 48 h
[9] = tested on: SK-OV-3; assay: Cytotoxicity against human SK-OV-3 cells assessed as reduction in cell viability measured after 48 hrs by SRB assay; type: functional, cell-based; conditions: SK-OV-3, 48 h
[10] = tested on: MCF7; assay: Cytotoxicity against human MCF7 cells assessed as reduction in cell viability measured after 48 hrs by SRB assay; type: functional, cell-based; conditions: MCF7, 48 h
[11] = tested on: SW-620; assay: Cytotoxicity against human SW620 cells assessed as reduction in cell viability measured after 48 hrs by SRB assay; type: functional, cell-based; conditions: SW-620, 48 h
[12] = tested on: A549; assay: Antiproliferative activity against multi-drug resistant human A549 cells assessed as reduction in cell viability; type: functional, cell-based
[13] = tested on: HT-29; assay: Cytotoxicity activity against human HT-29 cells assessed as reduction in cell growth measured after 72 hrs by MTT assay; type: functional, cell-based; conditions: HT-29, 72 h
[14] = tested on: MCF7; assay: Cytotoxicity activity against human MCF7 cells assessed as reduction in cell viability incubated for 72 hrs by MTT assay; type: functional, cell-based; conditions: MCF7, 72 h
[15] = tested on: A549; assay: Cytotoxicity activity against human A549 cells assessed as reduction in cell viability incubated for 72 hrs by MTT assay; type: functional, cell-based; conditions: A549, 72 h
[16] = tested on: HepG2; assay: Cytotoxicity activity against human HepG2 cells assessed as reduction in cell viability incubated for 72 hrs by MTT assay; type: functional, cell-based; conditions: HepG2, 72 h
[17] = tested on: KB; assay: Cytotoxicity activity against vincristine-resistant human KB cells assessed as reduction in cell growth; type: functional, cell-based
[18] = tested on: Epidermoid carcinoma cell line; assay: Cytotoxicity activity against vincristine-resistant human Epidermoid carcinoma cell line assessed as reduction in cell growth; type: functional, cell-based
[19] = tested on: H69AR; assay: Antiproliferative activity against multi-drug resistant human NCI-H69AR assessed as reduction in cell viability; type: functional, cell-based
[20] = tested on: A549; assay: Antiproliferative activity against drug-sensitive human A549 cells assessed as reduction in cell viability by MTT assay; type: functional, cell-based
[21] = tested on: H69AR; assay: Antiproliferative activity against multidrug resistant human NCI-H69AR assessed as inhibition of cell proliferation by MTT assay; type: functional, cell-based
[22] = Selectivity index, ratio of IC50 for antiproliferative activity against human MCF-10A cells to IC50 for antiproliferative activity against […] cells by MTT assay; type: toxicity, cell-based; conditions: MCF-10A cells and IEC-6 cells, read-out: Selectivity Index
[23] = tested on: HT-29; assay: Antiproliferative activity against human HT-29 cells assessed as reduction in cell viability celltiter-Glo assay; type: functional, cell-based
[24] = tested on: ZR-75-1; assay: Antiproliferative activity against human ZR-75-1 cells assessed as reduction in cell viability celltiter-Glo assay; type: functional, cell-based
[25] = tested on: IEC-6; assay: Antiproliferative activity against rat IEC-6 cells assessed as reduction in cell viability measured after 48 hrs by MTT assay; type: functional, cell-based; conditions: IEC-6, 48 h
[26] = tested on: KB; assay: Cytotoxicity against human KB cells assessed as reduction in cell viability measured after 48 hrs by MTT assay; type: functional, cell-based
[27] = Cytotoxicity against human hypertrophic scar Fibroblast cells assessed as inhibition of cell growth incubated for 2 hrs by MTT assay; type: toxicity, cell-based
[28] = tested on: K562/A02; assay: Antiproliferative activity against human K562/A02 cells assessed as reduction in cell viability measured after 2 days by MTT assay; type: functional, cell-based; conditions: K562/A02, 48 h
[29] = Cytotoxicity against human HUVEC cells assessed as reduction in cell viability incubated for 2 hrs by MTT assay; type: toxicity, cell-based
[30] = tested on: KB; assay: Antiproliferative activity against human KB cells assessed as reduction in cell growth incubated for 2 days by MTT assay; type: functional, cell-based; conditions: 48 h

Structure (SMILES): O=Cc1c[nH]c2ccccc12 [3-FORMYLINDOLE]
- pIC50 [1]: < 4.00

Structure (SMILES): C/C=C1\CN(C)[C@H]2Cc3c([nH]c4ccccc34)[C@@H](c3ccc4[nH]c5c(c4c3OC)CCN3C[C@H]4CC[C@H]5[C@H]3[C@@H]4CC)C[C@H]1[C@@H]2C(=O)OC
- pIC50 [2]: 5.17
- pIC50 [3]: 6.03

Structure (SMILES): CC(=O)O[C@]1(C)CO[C@@]23CC[C@@]4(C)[C@@](O)(CC[C@H]5Cc6c([nH]c7cc(Cl)ccc67)[C@@]54C)C2=CC(=O)[C@@H]1O3
- pIC50 [4]: 5.31
- pIC50 [5]: 5.42

Structure (SMILES): Fc1ccc(C2=NCc3c([nH]c4ccccc34)S2)cc1
- pIC50 [6]: 5.03

Structure (SMILES): COC(=O)[C@H]1[C@H]2C[C@@H]3c4[nH]c5cc(OC)ccc5c4CCN3C[C@H]2C[C@@H](OC(=O)c2cc(OC)c(OC)c(OC)c2)[C@@H]1OC [RESERPINE]
- pIC50 [7]: 5.04

Structure (SMILES): COc1ccc(C(=O)/C=C/c2nccc3c2[nH]c2ccccc23)cc1OC
- pIC50 [8]: 5.60
- pIC50 [9]: 5.30
- pIC50 [10]: 5.90
- pIC50 [11]: 5.00

Structure (SMILES): CCOC(=O)c1c(-c2ccc(F)cc2)oc2ccc(OCCCCCCN3C(=O)C(=O)c4cc(OC)ccc43)cc12
- pIC50 [12]: 4.11

Structure (SMILES): CCC1CN(C)[C@H]2Cc3c([nH]c4ccccc34)[C@@H](n3c4c(c5c(OC)c([C@H]6C[C@H]7[C@H](CC)CN(C)[C@@H](Cc8c6[nH]c6ccccc86)[C@H]7C(=O)OC)ccc53)CCN3C[C@H]5CC[C@H]4[C@H]3[C@@H]5CC)C[C@@H]1[C@@H]2C(=O)OC (single isomer, unassigned)
- pIC50 [13]: 4.94
- pIC50 [14]: 4.95
- pIC50 [15]: 4.99
- pIC50 [16]: 4.90

Structure (SMILES): CC[C@@]12CC(C(=O)OC)=C3N=C4C(=CC(=O)C(O)=C4OC)[C@@]34CCN([C@@H]3c5cc6c(cc5O[C@@H]3[C@H]1O)NC1=C(C(=O)OC)C[C@]3(CC)[C@@H]5O[C@@H]5CN5CC[C@@]16[C@@H]53)[C@H]42
- pIC50 [17]: 8.00
- pIC50 [18]: 5.54

Structure (SMILES): O=C1Nc2ccc(Cl)cc2/C1=N/N=C/c1nc(-c2ccccc2)cs1
- pIC50 [19]: 4.80
- pIC50 [20]: 4.99
- pIC50 [21]: 4.78
- selectivity ratio [22]: 1.8
- pIC50 [23]: 5.14
- pIC50 [24]: 5.71
- pIC50 [25]: 5.05

Structure (SMILES): CC[C@@]12CCCN3CCc4c(n(c5ccccc45)[C@H](c4ccc5c(c4)[C@@]46CCN7CCC[C@]8(CC[C@]4(C[C@@H]8C(=O)OC)N5)[C@H]76)C1)[C@H]32
- pIC50 [26]: 5.11

Structure (SMILES): C/C=C1\CN2CC[C@@]34c5c(ccc6c5OC5OC[C@@H]7[C@@H](C[C@H]8c9c(c%10ccccc%10n9C)C[C@@H]7N8C)[C@@H]5[C@@H]6C)N(C)[C@H]3[C@@H]2C[C@H]1[C@@H]4C(=O)OC (some centres not stated)
- pIC50 [4]: 5.14
- pIC50 [3]: 6.52

Structure (SMILES): COc1ccc2[nH]cc(C(=O)C(=O)N[C@@H]3c4cc5c(cc4[C@@H](c4cc(OC)c(OC)c(OC)c4)[C@H]4C(=O)OC[C@@H]43)OCO5)c2c1
- IC50 at 2 h [27]: 26.1 µM
- pIC50 [28]: 5.33
- IC50 at 2 h [29]: 15.1 µM
- pIC50 [30]: 6.00
